Earlier results in US8426470B2, “Method for alleviating signs and symptoms of spasticity” (Sun Pharmaceutical Industries Ltd., priority 2006, dated 2013).

What was measured:
spasticity = conditions: in vivo

## NCC(CC(=O)O)c1ccc(Cl)cc1 (centres unmarked) [Baclofen, 4-amino-3-(4-chlorophenyl)-butanoic acid]
In vivo
  Plasma elimination half-life: approximately 3.5 hours
  concentrations in the cerebrospinal fluid (CSF) relative to those in the plasma: about 12%
  elimination half-life from the CSF: 4 to 5 h
Remainder excreted mainly by the kidneys in unchanged form
  fraction metabolized in the liver: 15%
spasticity
  lowest concentration in plasma at which a significant reduction in spasticity was observed: 90 ng/mL
